Source: patent publication US9617225B2 (VIROSTATICS SRL, priority 2012, dated 2017)
Structures can show the parent of a compound that is named as a salt. Where two headings read alike, the source gives them in different places.

Columns and labels:
Primary T cells = test: Cytotoxicity, viability by flow cytometry; assay type: cell-based
Experimental: Primary T cells are cultured and treated with different concentrations of the test compound. Viability is analysed by measuring through flow cytometry based techniques the percentage of viable cells, compared to untreated control=100%).

[1] = molecular target: human CDK9/CyclinT kinase complex (Homo sapiens (Human), UniProt P50750); test: In Vitro CDK9/CyclinT Assay (IMAP fluorescent polarization); assay type: biochemical
Experimental: In Vitro CDK9/CyclinT Assay
The activity of the compounds described in the present invention can be determined by measuring the phosphorylation of a fluorescently-labeled peptide by human CDK9/CyclinT kinase complex by fluorescent polarization using a commercially available IMAP Screening Express Assay Kit (Molecular devices).
Test compounds were diluted in 100% DMSO to 5 mM stock concentration, then further dilutions were made in H2O or 100% DMSO to desirable concentrations. Each reaction consisted of 5 nM enzyme: CDK9/CyclinT (Proqinase cat#0371-0345-1), 400 nM TAMRA-Rbtide (synthetic 15-mer peptide derived from human retinoblastoma tumor suppressor protein labeled with TAMRA dye, Genecust Europe), 12 μM ATP (=Kmapp, Sigma-Aldrich) and kinase buffer: 20 mM MOPS pH 7 (Sigma-Aldrich), 1 mM DTT (Sigma-Aldrich), 10 mM MgCl2 (Sigma-Aldrich), 0.01% Tween 20 (Sigma-Aldrich).
For each reaction, 4 or 6 μl containing TAMRA-Rbtide, ATP and kianse buffer were combined with 2 μl diluted compound in H2O or 0.028 μl compound in 100% DMSO. The kinase reaction was started by the addition of 2 μl diluted enzyme. The reaction was allowed to run for 1 hour at room temperature. The reaction was stopped by adding 15 μl IMAP beads (1:400 beads in progressive (100% buffer A) 1× buffer).

[2] = Table 4, toxic dose 50%, viable cells

human CDK9/CyclinT kinase complex, sequence (P50750 whole entry): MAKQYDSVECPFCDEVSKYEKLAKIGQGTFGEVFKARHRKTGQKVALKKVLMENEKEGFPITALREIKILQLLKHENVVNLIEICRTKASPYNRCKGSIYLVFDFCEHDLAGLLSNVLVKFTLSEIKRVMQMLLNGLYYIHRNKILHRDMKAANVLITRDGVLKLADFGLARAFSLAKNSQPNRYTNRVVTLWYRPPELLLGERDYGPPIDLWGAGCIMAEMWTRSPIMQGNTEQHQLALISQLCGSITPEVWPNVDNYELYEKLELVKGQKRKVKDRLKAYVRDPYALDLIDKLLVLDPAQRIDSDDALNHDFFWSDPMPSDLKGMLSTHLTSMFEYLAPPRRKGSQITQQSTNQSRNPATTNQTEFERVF
human CDK9/CyclinT kinase complex, sequence (O60563 whole entry partner): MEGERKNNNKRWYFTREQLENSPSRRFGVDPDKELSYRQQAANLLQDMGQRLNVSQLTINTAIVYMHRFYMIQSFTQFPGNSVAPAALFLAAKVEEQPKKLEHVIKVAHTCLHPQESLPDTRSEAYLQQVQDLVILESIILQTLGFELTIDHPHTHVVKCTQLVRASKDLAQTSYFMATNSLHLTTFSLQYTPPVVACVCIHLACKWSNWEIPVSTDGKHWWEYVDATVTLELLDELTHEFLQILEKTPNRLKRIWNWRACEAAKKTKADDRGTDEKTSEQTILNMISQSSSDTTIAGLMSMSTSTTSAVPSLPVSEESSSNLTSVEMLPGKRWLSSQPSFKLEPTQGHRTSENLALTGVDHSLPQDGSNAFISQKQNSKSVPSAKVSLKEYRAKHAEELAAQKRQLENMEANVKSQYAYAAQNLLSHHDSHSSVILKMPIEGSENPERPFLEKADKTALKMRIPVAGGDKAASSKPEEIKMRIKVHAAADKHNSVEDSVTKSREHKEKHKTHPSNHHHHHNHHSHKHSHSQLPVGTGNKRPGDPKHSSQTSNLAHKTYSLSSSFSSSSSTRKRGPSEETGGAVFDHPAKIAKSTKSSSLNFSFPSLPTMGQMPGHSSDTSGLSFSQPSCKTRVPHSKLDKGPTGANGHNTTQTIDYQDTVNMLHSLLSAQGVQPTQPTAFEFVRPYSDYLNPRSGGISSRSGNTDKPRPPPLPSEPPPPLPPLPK

Row | SMILES | TD50 (Primary T cells) [µM] | IC50 [1] [nM] | IC50 ([1]; Table 1) [nM] | TD50 (Primary T cells; [2]) [µM]
1 | COc1ccc(Nc2cc(-c3ccccc3OC)ncn2)cc1CNCc1ccccc1 [Example 1, N-(3-((Benzylamino)methyl)-4-methoxyphenyl)-6-(2-methoxyphenyl)pyrimidin-4-amine] | 3.5 | < 1000 |  | 
2 | COc1ccccc1-c1cc(Nc2ccc(N3CCN(C)CC3)c(Cn3cnc4ccccc43)c2)ncn1 [Example 2, N-(3-((1H-Benzo[d]imidazol-1-yl)methyl)-4-(4-methylpiperazin-1-yl)phenyl)-6-(2-methoxyphenyl)pyrimidin-4-amine] | 0.4 |  | < 100 | 
3 | COc1ccc(Nc2cc(-c3ccccc3OC)ncn2)cc1CNS(C)(=O)=O [Example 4, N-(2-Methoxy-5-(6-(2-methoxyphenyl)pyrimidin-4-ylamino)benzyl)methanesulfonamide] | 2.1 |  | < 100 | 
4 | COc1ccccc1-c1cc(Nc2ccc(Cl)c(CO)c2)ncn1 [Example 6, (2-Chloro-5-(6-(2-methoxyphenyl)pyrimidin-4-ylamino)phenyl)methanol] | >0.5 |  | < 1000 | 
5 | COc1ccccc1-c1cc(Nc2ccc(Cl)c(C(=O)NN)c2)ncn1 [Example 7, 2-Chloro-5-(6-(2-methoxyphenyl)pyrimidin-4-ylamino)benzohydrazide] | >5 |  | < 100 | 
6 | COc1ccc(Nc2cc(-c3ccccc3OC)ncn2)cc1OCCN1CCOCC1 [Example 8, N-(4-Methoxy-3-(2-morpholinoethoxy)phenyl)-6-(2-methoxyphenyl)pyrimidin-4-amine] |  |  | < 1000 | >1.5
7 | COc1ccc(Nc2cc(-c3ccccc3OC)ncn2)cc1NS(C)(=O)=O [Example 9, N-(2-Methoxy-5-(6-(2-methoxyphenyl)pyrimidin-4-ylamino)phenyl)methanesulfonamide] | >1.5 |  |  | 
8 | CCOC(=O)c1cc(Nc2cc(-c3ccccc3OC)ncn2)ccc1Cl [Example 14, Ethyl 2-chloro-5-(6-(2-methoxyphenyl)pyrimidin-4-ylamino)benzoate] | >0.5 | < 1000 |  | 
9 | COc1ccccc1-c1cc(Nc2ccc(Cl)c(C(=O)N3CCCC3)c2)ncn1 [Example 15, (2-Chloro-5-(6-(2-methoxyphenyl)pyrimidin-4-ylamino)phenyl)(pyrrolidin-1-yl)methanone] | >0.5 | < 1000 |  | 
10 | COc1ccccc1-c1cc(Nc2ccc(N3CCN(C)CC3)c(CO)c2)ncn1 [Example 17] | >0.5 |  |  | 
11 | CCOC(=O)c1cc(Nc2cc(-c3ccccc3OC)ncn2)ccc1N1CCOCC1 [Example 18, Ethyl 5-(6-(2-methoxyphenyl)pyrimidin-4-ylamino)-2-morpholinobenzoate] | >0.5 |  | < 1000 | 
12 | COc1ccccc1-c1cc(Nc2ccc(N3CCOCC3)c(CO)c2)ncn1 [Example 19, (5-(6-(2-Methoxyphenyl)pyrimidin-4-ylamino)-2-morpholinophenyl)methanol] | >0.5 |  | < 1000 | 
13 | COc1ccccc1-c1cc(Nc2ccc(Cl)c(CN3C(=O)c4ccccc4C3=O)c2)ncn1 [Example 20, 2-(2-Chloro-5-(6-(2-methoxyphenyl)pyrimidin-4-ylamino)benzyl)isoindoline-1,3-dione] |  | < 10000 |  | >0.5
14 | COC(=O)c1cc(Nc2cc(-c3ccccc3OC)ncn2)ccc1O [Example 21, Methyl 2-hydroxy-5-(6-(2-methoxyphenyl)pyrimidin-4-ylamino)benzoate] | >0.5 |  | < 1000 | 
15 | COc1ccc(Nc2cc(-c3ccccc3OC)ncn2)cc1F [Example 22, N-(3-Fluoro-4-methoxyphenyl)-6-(2-methoxyphenyl)pyrimidin-4-amine] | >0.5 |  | < 1000 | 
16 | COc1ccc(Nc2cc(-c3ccccc3OC)ncn2)cc1C(=O)NCc1ccccc1 [Example 23, N-Benzyl-2-methoxy-5-(6-(2-methoxyphenyl)pyrimidin-4-ylamino)benzamide] | >0.5 |  | < 1000 | 
17 | COc1ccc(Nc2cc(-c3ccccc3OC)ncn2)cc1CO [Example 24, (2-Methoxy-5-(6-(2-methoxyphenyl)pyrimidin-4-ylamino)phenyl)methanol] | >0.5 |  | < 1000 | 
18 | CNC(=O)c1cc(Nc2cc(-c3ccccc3OC)ncn2)ccc1OC [Example 25, 2-Methoxy-5-(6-(2-methoxyphenyl)pyrimidin-4-ylamino)-N-methylbenzamide] | >0.5 |  | < 1000 | 
19 | COc1ccc(Nc2cc(-c3ccccc3OC)ncn2)cc1NC(=O)OCC(Cl)(Cl)Cl [Example 27, 2,2,2-Trichloroethyl 2-methoxy-5-(6-(2-methoxyphenyl)pyrimidin-4-ylamino)phenylcarbamate] |  | < 10000 |  | >0.5

Row | SMILES | TD50 (Primary T cells) [µM] | IC50 [1] [nM] | IC50 ([1]; Table 1) [nM] | TD50 (Primary T cells; [2]) [µM]
20 | COc1ccc(Nc2cc(-c3ccccc3OC)ncn2)cc1CN(C)C [Example 35, N-(3-((Dimethylamino)methyl)-4-methoxyphenyl)-6-(2-methoxyphenyl)pyrimidin-4-amine] | 3 |  |  | 
21 | COC(=O)N(C)c1cc(Nc2cc(-c3ccccc3OC)ncn2)ccc1OC [Example 98, {2-Methoxy-5-[6-(2-methoxy-phenyl)-pyrimidin-4-ylamino]-phenyl}-methyl-carbamic acid methyl ester hydrochloride] |  | < 1000 |  | 
22 | CNc1cc(Nc2cc(-c3ccccc3OC)ncn2)ccc1OC [Example 99, 4-Methoxy-N^1-[6-(2-methoxy-phenyl)-pyrimidin-4-yl]-N^3-methyl-benzene-1,3-diamine] |  |  | < 1000 | 
23 | CCOc1ccc(Nc2cc(-c3ccccc3OC)ncn2)cc1[N+](=O)[O-] [Example 100, (4-Ethoxy-3-nitro-phenyl)-[6-(2-methoxy-phenyl)-pyrimidin-4-yl]-amine] |  |  | < 10000 | 
24 | COc1cc(F)ccc1-c1cc(Nc2ccc(F)c([N+](=O)[O-])c2)ncn1 [Example 102, [6-(4-Fluoro-2-methoxy-phenyl)-pyrimidin-4-yl]-(4-fluoro-3-nitro-phenyl)-amine] |  | < 10000 |  | 
25 | CCOc1ccc(Nc2cc(-c3ccc(F)cc3OC)ncn2)cc1[N+](=O)[O-] [Example 103, (4-Ethoxy-3-nitro-phenyl)-[6-(4-fluoro-2-methoxy-phenyl)-pyrimidin-4-yl]-amine] |  |  | < 1000 | 
26 | COc1cc(F)ccc1-c1cc(Nc2ccc(F)c(N)c2)ncn1 [Example 104, 4-Fluoro-N^1-[6-(4-fluoro-2-methoxy-phenyl)-pyrimidin-4-yl]-benzene-1,3-diamine] |  |  | < 1000 | 
27 | COc1ccccc1-c1cc(Nc2ccc(N(C)C)c(O)c2)ncn1 [Example 108, 2-Dimethylamino-5-[6-(2-methoxy-phenyl)-pyrimidin-4-ylamino]-phenol] |  | < 1000 |  | 
28 | COc1ccccc1-c1cc(Nc2ccc(N(C)C)c(C(N)=O)c2)ncn1 [Example 109, 2-Dimethylamino-5-[6-(2-methoxy-phenyl)-pyrimidin-4-ylamino]-benzamide] |  | < 1000 |  | 
29 | CCOc1ccc(Nc2cc(-c3ccccc3OC)ncn2)cc1O [Example 110, 2-Ethoxy-5-[6-(2-methoxy-phenyl)-pyrimidin-4-ylamino]-phenol] |  |  | < 1000 | 
30 | COc1cc(F)ccc1-c1cc(Nc2ccc(N(C)C)c(C(N)=O)c2)ncn1 [Example 113, 2-Dimethylamino-5-[6-(4-fluoro-2-methoxy-phenyl)-pyrimidin-4-ylamino]-benzamide] |  |  | < 100 | 
31 | COc1ccc(Nc2cc(-c3ccccc3OC)ncn2)cc1Br [Example 115, (3-Bromo-4-methoxy-phenyl)-[6-(2-methoxy-phenyl)-pyrimidin-4-yl]-amine] |  | < 10000 |  | 
32 | COc1ccc(Nc2cc(-c3ccccc3OC)ncn2)cc1C1=CCNCC1 [Example 116, [6-(2-Methoxy-phenyl)-pyrimidin-4-yl]-[4-methoxy-3-(1,2,3,6-tetrahydro-pyridin-4-yl)-phenyl]-amine] |  |  | < 100 | 
33 | COc1ccc(Nc2cc(-c3ccc(F)cc3OC)ncn2)cc1NC(N)=O [Example 119, {5-[6-(4-Fluoro-2-methoxy-phenyl)-pyrimidin-4-ylamino]-2-methoxy-phenyl}-urea] |  |  | < 1000 | 
34 | COc1cc(Nc2cc(-c3ccccc3OC)ncn2)ccc1OCc1ccccc1 [Example 120, (4-Benzyloxy-3-methoxy-phenyl)-[6-(2-methoxy-phenyl)-pyrimidin-4-yl]-amine] |  | < 10000 |  | 
35 | COc1cc(Nc2cc(-c3ccccc3OC)ncn2)ccc1O [Example 121, 2-Methoxy-4-[6-(2-methoxy-phenyl)-pyrimidin-4-ylamino]-phenol] |  |  | < 100 | 
36 | CCOc1ccccc1-c1cc(Nc2ccc(OC)c(O)c2)ncn1 [Example 124, 5-[6-(2-Ethoxy-phenyl)-pyrimidin-4-ylamino]-2-methoxy-phenol] |  |  | < 1000 | 
37 | COC(=O)Oc1cc(Nc2cc(-c3ccc(F)cc3OC)ncn2)ccc1OC [Example 125, Carbonic acid 5-[6-(4-fluoro-2-methoxy-phenyl)-pyrimidin-4-ylamino]-2-methoxy-phenyl ester methyl ester] |  |  | < 1000 | 
38 | COc1cc(Nc2cc(-c3ccccc3OC)ncn2)ccc1C(=O)NCCO [Example 135, N-(2-Hydroxy-ethyl)-2-methoxy-4-[6-(2-methoxy-phenyl)-pyrimidin-4-ylamino]-benzamide] |  |  | < 1000 | 
